Patent US20260092071A1, “COMPOUNDS AND COMPOSITIONS AS SMARCA2/4 DEGRADERS AND USES THEREOF” (REGENTS OF THE UNIVERSITY OF MICHIGAN, priority 2022, published 2026)

What was measured:
[1] = molecular target: SMARCA2 (Homo sapiens, UniProt P51531); test: HiBit assay in engineered HT1080 CRISPR knock-in cell, 6 hrs (B series), SMARCA2; format: cell-based; settings: 6 hrs incubation; for DC50: read-out: SMARC A2 HT1080 HiBit DC50; for Dmax: HT-1080, HT1080 CRISPR knock-in cells, read-out: SMARC A2 HT1080 HiBit Dmax (%)
Chain of SMARCA2 (P51531 whole entry): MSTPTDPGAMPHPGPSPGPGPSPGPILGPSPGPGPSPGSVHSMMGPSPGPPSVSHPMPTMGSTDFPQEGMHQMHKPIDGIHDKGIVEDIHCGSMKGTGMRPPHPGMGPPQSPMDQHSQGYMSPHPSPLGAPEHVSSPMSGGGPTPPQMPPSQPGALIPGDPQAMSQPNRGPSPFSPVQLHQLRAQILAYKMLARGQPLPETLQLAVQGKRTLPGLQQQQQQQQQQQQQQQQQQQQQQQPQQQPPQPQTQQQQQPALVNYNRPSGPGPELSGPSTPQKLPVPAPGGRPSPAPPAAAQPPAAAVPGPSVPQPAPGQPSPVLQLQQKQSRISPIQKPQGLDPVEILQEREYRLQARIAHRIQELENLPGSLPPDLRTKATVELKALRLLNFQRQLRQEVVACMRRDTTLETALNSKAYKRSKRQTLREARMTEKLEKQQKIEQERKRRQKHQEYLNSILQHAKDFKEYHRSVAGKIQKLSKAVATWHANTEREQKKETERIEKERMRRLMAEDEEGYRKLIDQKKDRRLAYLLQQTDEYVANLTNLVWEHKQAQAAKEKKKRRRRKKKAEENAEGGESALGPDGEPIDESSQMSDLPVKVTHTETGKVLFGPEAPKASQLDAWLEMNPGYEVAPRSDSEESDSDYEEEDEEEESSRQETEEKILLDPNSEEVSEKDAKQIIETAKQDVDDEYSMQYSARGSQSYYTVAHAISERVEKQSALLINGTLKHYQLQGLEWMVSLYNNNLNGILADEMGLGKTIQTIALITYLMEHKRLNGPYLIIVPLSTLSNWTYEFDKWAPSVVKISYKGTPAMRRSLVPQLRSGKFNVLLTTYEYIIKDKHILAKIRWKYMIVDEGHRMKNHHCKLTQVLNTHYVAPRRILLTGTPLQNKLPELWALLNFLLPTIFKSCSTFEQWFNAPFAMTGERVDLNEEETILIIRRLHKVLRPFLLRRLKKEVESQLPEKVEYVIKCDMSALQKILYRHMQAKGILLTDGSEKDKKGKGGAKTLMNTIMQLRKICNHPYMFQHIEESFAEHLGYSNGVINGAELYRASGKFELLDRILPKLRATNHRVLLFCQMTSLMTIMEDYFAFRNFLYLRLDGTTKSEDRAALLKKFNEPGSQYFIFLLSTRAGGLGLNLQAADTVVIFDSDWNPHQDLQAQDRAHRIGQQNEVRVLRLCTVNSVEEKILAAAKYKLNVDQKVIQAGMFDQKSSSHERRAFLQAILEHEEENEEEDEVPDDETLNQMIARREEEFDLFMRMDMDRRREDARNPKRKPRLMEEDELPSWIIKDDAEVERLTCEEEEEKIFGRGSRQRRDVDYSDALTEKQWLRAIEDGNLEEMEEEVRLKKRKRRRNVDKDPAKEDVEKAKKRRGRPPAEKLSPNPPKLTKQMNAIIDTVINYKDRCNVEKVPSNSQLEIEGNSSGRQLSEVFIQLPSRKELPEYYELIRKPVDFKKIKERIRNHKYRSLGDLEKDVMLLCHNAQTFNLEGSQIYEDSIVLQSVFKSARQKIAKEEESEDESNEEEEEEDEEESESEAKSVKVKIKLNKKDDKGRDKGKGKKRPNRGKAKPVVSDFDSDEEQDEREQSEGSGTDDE
Method in brief: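 Protein abundance is measured in HiBiT-tagged HT1080 CRISPR knock-in cells after a 6 hr compound treatment (0.1% DMSO) by lytic Nano-Glo HiBiT luminescence.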

[2] = molecular target: SMARCA4 (Homo sapiens, UniProt P51532); test: HiBit assay in engineered HT1080 CRISPR knock-in cell, 6 hrs (B series), SMARCA4; format: cell-based; settings: 6 hrs incubation; for DC50: read-out: SMARC A4 HT1080 HiBit DC50; for Dmax: HT-1080, HT1080 CRISPR knock-in cells, read-out: SMARC A4 HT1080 HiBit Dmax(%)
Chain of SMARCA4 (P51532 whole entry): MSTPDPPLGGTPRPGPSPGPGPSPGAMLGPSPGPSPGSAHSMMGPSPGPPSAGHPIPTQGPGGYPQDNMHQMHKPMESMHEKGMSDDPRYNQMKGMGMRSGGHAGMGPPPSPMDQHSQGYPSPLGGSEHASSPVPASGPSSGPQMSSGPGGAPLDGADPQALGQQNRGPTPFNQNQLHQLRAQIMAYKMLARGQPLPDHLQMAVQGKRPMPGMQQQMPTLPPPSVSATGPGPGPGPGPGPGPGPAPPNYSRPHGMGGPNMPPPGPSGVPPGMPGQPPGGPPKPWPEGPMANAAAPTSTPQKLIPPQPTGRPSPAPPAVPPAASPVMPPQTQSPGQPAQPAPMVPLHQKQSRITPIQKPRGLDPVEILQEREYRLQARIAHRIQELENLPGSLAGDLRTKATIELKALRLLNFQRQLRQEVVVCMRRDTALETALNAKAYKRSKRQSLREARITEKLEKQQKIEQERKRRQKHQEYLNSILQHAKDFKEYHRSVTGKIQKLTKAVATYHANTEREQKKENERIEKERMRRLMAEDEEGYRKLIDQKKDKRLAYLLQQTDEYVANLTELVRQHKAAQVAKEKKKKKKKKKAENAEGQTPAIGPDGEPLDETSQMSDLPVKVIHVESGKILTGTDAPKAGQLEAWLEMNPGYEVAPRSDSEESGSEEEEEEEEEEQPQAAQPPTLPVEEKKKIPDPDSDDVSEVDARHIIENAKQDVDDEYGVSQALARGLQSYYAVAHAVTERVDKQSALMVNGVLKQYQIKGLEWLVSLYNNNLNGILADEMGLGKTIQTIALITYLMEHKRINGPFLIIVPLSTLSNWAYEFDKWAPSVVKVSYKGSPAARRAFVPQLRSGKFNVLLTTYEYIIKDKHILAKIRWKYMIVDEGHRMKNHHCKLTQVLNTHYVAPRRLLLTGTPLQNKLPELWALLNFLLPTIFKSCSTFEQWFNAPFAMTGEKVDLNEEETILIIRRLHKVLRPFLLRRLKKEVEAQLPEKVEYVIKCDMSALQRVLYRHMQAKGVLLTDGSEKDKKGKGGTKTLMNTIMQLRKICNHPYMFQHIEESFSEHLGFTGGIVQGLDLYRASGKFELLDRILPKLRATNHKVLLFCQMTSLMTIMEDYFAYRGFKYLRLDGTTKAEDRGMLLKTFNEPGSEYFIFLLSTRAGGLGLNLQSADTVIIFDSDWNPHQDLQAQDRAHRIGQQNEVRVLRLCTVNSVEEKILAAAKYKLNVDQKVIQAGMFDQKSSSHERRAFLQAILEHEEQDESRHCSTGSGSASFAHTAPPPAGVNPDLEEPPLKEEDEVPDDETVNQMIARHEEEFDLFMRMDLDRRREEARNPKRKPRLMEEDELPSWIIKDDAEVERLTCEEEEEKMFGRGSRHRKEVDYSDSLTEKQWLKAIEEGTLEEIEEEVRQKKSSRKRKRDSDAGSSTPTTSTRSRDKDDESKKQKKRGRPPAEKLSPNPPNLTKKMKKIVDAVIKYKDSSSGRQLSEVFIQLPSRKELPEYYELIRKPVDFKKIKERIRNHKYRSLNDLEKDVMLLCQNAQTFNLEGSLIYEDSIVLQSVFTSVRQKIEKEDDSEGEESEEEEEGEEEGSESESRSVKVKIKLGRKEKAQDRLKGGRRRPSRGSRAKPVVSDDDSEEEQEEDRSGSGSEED
Method in brief: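 Compounds were dispensed first, then HT1080 knock-in cells added and incubated for 6 hrs at 37° C. Next, detection reagent containing LgBiT and lytic substrate was added. Plates were shaken 10 min and centrifuged, and luminescence was measured.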

| Structure (SMILES) | DC50 ([1]; HT1080 CRISPR knock-in cells) [nM] | Dmax [1] [%] | DC50 ([2]; HT1080 CRISPR knock-in cells) [nM] | Dmax [2] [%] | SMARC A2 HT1080 HiBit Dmax (%) ([1]; HT1080 CRISPR knock-in cells) | SMARC A4 HT1080 HiBit Dmax(%) ([2]; HT1080 CRISPR knock-in cells) |
| --- | --- | --- | --- | --- | --- | --- |
| Cc1ncsc1-c1ccc([C@H](C)NC(=O)[C@@H]2C[C@@H](O)CN2C(=O)[C@@H](c2cc(OCC3(CN4CCC(c5ccc6c(c5)-n5c(nc(=O)c7c(Cl)cccc75)C6(C)C)CC4)CC3)no2)C(C)C)cc1 [Compound B91, (2S,4R)-1-((R)-2-(3-((1-((4-(4-chloro-7,7-dimethyl-5-oxo-5,7-dihydroindolo[1,2-a]quinazolin-10-yl)piperidin-1-yl)methyl)cyclopropyl)methoxy)isoxazol-5-yl)-3-methylbutanoyl)-4-hydroxy-N-((S)-1-(4-(4-methylthiazol-5-yl)phenyl)ethyl)pyrrolidine-2-carboxamide] | < 100 | > 90 | < 100 | > 90 |  |  |
| Cc1ncsc1-c1ccc([C@H](C)NC(=O)[C@@H]2C[C@@H](O)CN2C(=O)[C@@H](NC(=O)CCn2cc(-c3ccc4c(c3)-n3c(nc(=O)c5c(Cl)cccc53)C4(C)C)cn2)C(C)(C)C)cc1 [Compound B92, (2S,4R)-1-((S)-2-(3-(4-(4-chloro-7,7-dimethyl-5-oxo-5,7-dihydroindolo[1,2-a]quinazolin-10-yl)-1H-pyrazol-1-yl)propanamido)-3,3-dimethylbutanoyl)-4-hydroxy-N-((S)-1-(4-(4-methylthiazol-5-yl)phenyl)ethyl)pyrrolidine-2-carboxamide] | > 1000 | < 50 | > 1000 | < 50 |  |  |
| Cc1ncsc1-c1ccc([C@H](C)NC(=O)[C@@H]2C[C@@H](O)CN2C(=O)[C@@H](c2cc(OC3CCC(Cn4cc(-c5ccc6c(c5)-n5c(nc(=O)c7c(Cl)cccc75)C6(C)C)cn4)CC3)no2)C(C)C)cc1 (stereo partly drawn) [Compound B96, (2S,4R)-1-((R)-2-(3-((4-((4-(4-chloro-7,7-dimethyl-5-oxo-5,7-dihydroindolo[1,2-a]quinazolin-10-yl)-1H-pyrazol-1-yl)methyl)cyclohexyl)oxy)isoxazol-5-yl)-3-methylbutanoyl)-4-hydroxy-N-((S)-1-(4-(4-methylthiazol-5-yl)phenyl)ethyl)pyrrolidine-2-carboxamide] | < 100 |  | 100 to 500 |  | B (B (70-90% degradation)) | D (D (<50% degradation)) |
| Cc1ncsc1-c1ccc([C@H](C)NC(=O)[C@@H]2C[C@@H](O)CN2C(=O)[C@@H](c2cc(OCCCCn3cc(-c4ccc5c(c4)-n4c(nc(=O)c6c(Cl)cccc64)C5(C)C)cn3)no2)C(C)C)cc1 [Compound B97, (2S,4R)-1-((R)-2-(3-(4-(4-(4-chloro-7,7-dimethyl-5-oxo-5,7-dihydroindolo[1,2-a]quinazolin-10-yl)-1H-pyrazol-1-yl)butoxy)isoxazol-5-yl)-3-methylbutanoyl)-4-hydroxy-N-((S)-1-(4-(4-methylthiazol-5-yl)phenyl)ethyl)pyrrolidine-2-carboxamide] | 100 to 500 | 50 to 69 | 100 to 500 | < 50 |  |  |
| Cc1ncsc1-c1ccc([C@H](C)NC(=O)[C@@H]2C[C@@H](O)CN2C(=O)C(c2cc(OCCCCn3cc(-c4ccc5c(c4)C(C)(C)c4nc(=O)c6c(Cl)cccc6n4-5)cn3)no2)C(C)C)cc1 (stereo partly drawn) [Compound B99, (2S,4R)-1-(2-(3-(4-(4-(4-chloro-7,7-dimethyl-5-oxo-5,7-dihydroindolo[1,2-a]quinazolin-9-yl)-1H-pyrazol-1-yl)butoxy)isoxazol-5-yl)-3-methylbutanoyl)-4-hydroxy-N-((S)-1-(4-(4-methylthiazol-5-yl)phenyl)ethyl)pyrrolidine-2-carboxamide] | < 100 | 50 to 69 | > 1000 | < 50 |  |  |
| Cc1ncsc1-c1ccc([C@H](C)NC(=O)[C@@H]2C[C@@H](O)CN2C(=O)[C@@H](c2cc(OCC3CCC(N4CCC(c5cccc6c5C(C)(C)c5nc(=O)c7c(Cl)cccc7n5-6)CC4)CC3)no2)C(C)C)cc1 (stereo partly drawn) [Compound B100, (2S,4R)-1-((R)-2-(3-((4-(4-(4-chloro-7,7-dimethyl-5-oxo-5,7-dihydroindolo[1,2-a]quinazolin-8-yl)piperidin-1-yl)cyclohexyl)methoxy)isoxazol-5-yl)-3-methylbutanoyl)-4-hydroxy-N-((S)-1-(4-(4-methylthiazol-5-yl)phenyl)ethyl)pyrrolidine-2-carboxamide] | < 100 | 70 to 90 | < 100 | < 50 |  |  |
| Cc1ncsc1-c1ccc([C@H](C)NC(=O)[C@@H]2C[C@@H](O)CN2C(=O)[C@@H](NC(=O)CCn2cc(-c3ccc4c(c3)C(C)(C)c3nc(=O)c5c(Cl)cccc5n3-4)cn2)C(C)(C)C)cc1 [Compound B101, (2S,4R)-1-((S)-2-(3-(4-(4-chloro-7,7-dimethyl-5-oxo-5,7-dihydroindolo[1,2-a]quinazolin-9-yl)-1H-pyrazol-1-yl)propanamido)-3,3-dimethylbutanoyl)-4-hydroxy-N-((S)-1-(4-(4-methylthiazol-5-yl)phenyl)ethyl)pyrrolidine-2-carboxamide] | > 1000 | < 50 | > 1000 | < 50 |  |  |
| C#Cc1ccc([C@H](CN2CCOCC2)NC(=O)[C@@H]2C[C@@H](O)CN2C(=O)[C@@H](n2cc([C@H]3CC[C@H](CN4CCC(c5ccc6c(c5)-n5c(nc(=O)c7c(Cl)cccc75)C6(C)C)CC4)CC3)nn2)C(C)(C)C)cc1 [Compound B102, (2S,4R)-1-((S)-2-(4-((1r,4S)-4-((4-(4-chloro-7,7-dimethyl-5-oxo-5,7-dihydroindolo[1,2-a]quinazolin-10-yl)piperidin-1-yl)methyl)cyclohexyl)-1H-1,2,3-triazol-1-yl)-3,3-dimethylbutanoyl)-N—((R)-1-(4-ethynylphenyl)-2-morpholinoethyl)-4-hydroxypyrrolidine-2-carboxamide] | < 100 | > 90 | < 100 | 70 to 90 |  |  |
| Cc1cc(C(C(=O)N2C[C@H](O)C[C@H]2C(=O)N[C@@H](C)c2ccc(-c3scnc3C#CCOCCCN3CCC(c4ccc5c(c4)-n4c(nc(=O)c6c(Cl)cccc64)C5(C)C)CC3)cc2)C(C)C)on1 (stereo partly drawn) [Compound B103, (2S,4R)-N-((S)-1-(4-(4-(3-(3-(4-(4-chloro-7,7-dimethyl-5-oxo-5,7-dihydroindolo[1,2-a]quinazolin-10-yl)piperidin-1-yl)propoxy)prop-1-yn-1-yl)thiazol-5-yl)phenyl)ethyl)-4-hydroxy-1-(3-methyl-2-(3-methylisoxazol-5-yl)butanoyl)pyrrolidine-2-carboxamide] | < 100 | > 90 | < 100 | > 90 |  |  |

Other lines, results leading:

| DC50 ([1]; HT1080 CRISPR knock-in cells) [nM] | Dmax [1] [%] | DC50 ([2]; HT1080 CRISPR knock-in cells) [nM] | Dmax [2] [%] | SMARC A2 HT1080 HiBit Dmax (%) ([1]; HT1080 CRISPR knock-in cells) | SMARC A4 HT1080 HiBit Dmax(%) ([2]; HT1080 CRISPR knock-in cells) | Structure (SMILES) |
| --- | --- | --- | --- | --- | --- | --- |
| < 100 | > 90 | < 100 | > 90 |  |  | Cc1ncsc1-c1ccc([C@H](C)NC(=O)[C@@H]2C[C@@H](O)CN2C(=O)[C@@H](c2cc(N3CCC(C(=O)N4CCC(c5ccc6c(c5)C(C)(C)c5nc(=O)c7c(Cl)cccc7n5-6)CC4)CC3)no2)C(C)C)cc1 [Compound B90, (2S,4R)-1-(2-(3-(4-(4-(4-chloro-7,7-dimethyl-5-oxo-5,7-dihydroindolo[1,2-a]quinazolin-9-yl)piperidine-1-carbonyl)piperidin-1-yl)isoxazol-5-yl)-3-methylbutanoyl)-4-hydroxy-N—((S)-1-(4-(4-methylthiazol-5-yl)phenyl)ethyl)pyrrolidine-2-carboxamide] |
| 100 to 500 | 50 to 69 | 100 to 500 | < 50 |  |  | Cc1ncsc1-c1ccc([C@H](C)NC(=O)[C@@H]2C[C@@H](O)CN2C(=O)[C@@H](NC(=O)CCCn2cc(-c3ccc4c(c3)C(C)(C)c3nc(=O)c5c(Cl)cccc5n3-4)cn2)C(C)(C)C)cc1 [Compound B93, (2S,4R)-1-((S)-2-(4-(4-(4-chloro-7,7-dimethyl-5-oxo-5,7-dihydroindolo[1,2-a]quinazolin-9-yl)-1H-pyrazol-1-yl)butanamido)-3,3-dimethylbutanoyl)-4-hydroxy-N—((S)-1-(4-(4-methylthiazol-5-yl)phenyl)ethyl)pyrrolidine-2-carboxamide] |
| 100 to 500 | 50 to 69 | > 1000 | < 50 |  |  | Cc1ncsc1-c1ccc([C@H](C)NC(=O)[C@@H]2C[C@@H](O)CN2C(=O)[C@@H](c2cc(OC3CCC(Cn4cc(-c5ccc6c(c5)-n5c(nc(=O)c7c(Cl)cccc75)C6(C)C)cn4)CC3)no2)C(C)C)cc1 (stereo partly drawn) [Compound B95, (2S,4R)-1-((R)-2-(3-((4-((4-(4-chloro-7,7-dimethyl-5-oxo-5,7-dihydroindolo[1,2-a]quinazolin-10-yl)-1H-pyrazol-1-yl)methyl)cyclohexyl)oxy)isoxazol-5-yl)-3-methylbutanoyl)-4-hydroxy-N-((S)-1-(4-(4-methylthiazol-5-yl)phenyl)ethyl)pyrrolidine-2-carboxamide] |
| < 100 | > 90 | 100 to 500 | 70 to 90 |  |  | Cc1cc(C(C(=O)N2C[C@H](O)C[C@H]2C(=O)N[C@@H](C)c2ccc(-c3scnc3C#CCOCCOCCN3CCC(c4ccc5c(c4)-n4c(nc(=O)c6c(Cl)cccc64)C5(C)C)CC3)cc2)C(C)C)on1 (stereo partly drawn) [Compound B104, (2S,4R)—N—((S)-1-(4-(4-(3-(2-(2-(4-(4-chloro-7,7-dimethyl-5-oxo-5,7-dihydroindolo[1,2-a]quinazolin-10-yl)piperidin-1-yl)ethoxy)ethoxy)prop-1-yn-1-yl)thiazol-5-yl)phenyl)ethyl)-4-hydroxy-1-(3-methyl-2-(3-methylisoxazol-5-yl)butanoyl)pyrrolidine-2-carboxamide] |
